Assay results: ChEMBL document CHEMBL6096664, “Discovery of novel KSP-targeting PROTACs with potent antitumor effects in vitro and in vivo” (Eur J Med Chem, 2025)

How the values were obtained:
HCT-116 [1] = assay: Antiproliferative activity against human HCT-116 cells assessed as inhibition of cell proliferation measured after 72 hrs by CCK8 assay; assay type: functional, cell-based; conditions: HCT-116, 72 h
[2] = biological target: Protein cereblon/Kinesin-like protein KIF11 (Homo sapiens, UniProt P52732+Q96SW2); assay: PROTAC activity at CRBN/KSP in human HCT-116 cells assessed as induction of KSP degradation at 500 nM incubated for 48 hrs by Western blot analysis relative to control; assay type: cell-based
Chain of Protein cereblon/Kinesin-like protein KIF11 (Q96SW2 whole entry, looked up, one chain of several): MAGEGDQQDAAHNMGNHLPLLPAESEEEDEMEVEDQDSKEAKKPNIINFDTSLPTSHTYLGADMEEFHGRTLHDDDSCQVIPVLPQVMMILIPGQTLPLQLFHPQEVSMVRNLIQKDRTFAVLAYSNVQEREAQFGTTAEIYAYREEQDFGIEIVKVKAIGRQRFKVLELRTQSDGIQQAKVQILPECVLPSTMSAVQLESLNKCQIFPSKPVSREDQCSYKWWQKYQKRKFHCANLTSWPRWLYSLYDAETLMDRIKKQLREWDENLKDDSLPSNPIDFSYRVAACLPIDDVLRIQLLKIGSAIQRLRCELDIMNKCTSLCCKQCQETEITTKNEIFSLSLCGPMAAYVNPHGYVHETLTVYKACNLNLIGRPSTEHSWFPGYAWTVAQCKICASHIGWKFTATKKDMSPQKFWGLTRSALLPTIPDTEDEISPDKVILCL

HCT-116 [3] = assay: PROTAC activity at VHL-L/KSP in human HCT-116 cells assessed as induction of KSP degradation at 500 nM incubated for 48 hrs by Western blot analysis relative to control; assay type: cell-based
HCT-116 [4] = assay: Induction of apoptosis in human HCT-116 cells assessed as viable cells at 100 nM incubated for 48 hrs by Annexin V-FITC/PI staining based flow cytometry analysis (reference value: 94.31 %); assay type: functional; conditions: read-out: Activity
HCT-116 [5] = assay: Induction of apoptosis in human HCT-116 cells assessed as necrotic cells at 100 nM incubated for 48 hrs by Annexin V-FITC/PI staining based flow cytometry analysis (reference value: 1.31 %); assay type: functional
[6] = biological target: T1, Kinesin-like protein KIF11 (Homo sapiens, UniProt P52732); assay: Inhibition of KSP (unknown origin) ATPase activity preincubated for 30 mins followed by ATP addition and measured after 15 mins by Kinase-Glo Plus reagent based luminescence analysis
T1 sequence (P52732 whole entry): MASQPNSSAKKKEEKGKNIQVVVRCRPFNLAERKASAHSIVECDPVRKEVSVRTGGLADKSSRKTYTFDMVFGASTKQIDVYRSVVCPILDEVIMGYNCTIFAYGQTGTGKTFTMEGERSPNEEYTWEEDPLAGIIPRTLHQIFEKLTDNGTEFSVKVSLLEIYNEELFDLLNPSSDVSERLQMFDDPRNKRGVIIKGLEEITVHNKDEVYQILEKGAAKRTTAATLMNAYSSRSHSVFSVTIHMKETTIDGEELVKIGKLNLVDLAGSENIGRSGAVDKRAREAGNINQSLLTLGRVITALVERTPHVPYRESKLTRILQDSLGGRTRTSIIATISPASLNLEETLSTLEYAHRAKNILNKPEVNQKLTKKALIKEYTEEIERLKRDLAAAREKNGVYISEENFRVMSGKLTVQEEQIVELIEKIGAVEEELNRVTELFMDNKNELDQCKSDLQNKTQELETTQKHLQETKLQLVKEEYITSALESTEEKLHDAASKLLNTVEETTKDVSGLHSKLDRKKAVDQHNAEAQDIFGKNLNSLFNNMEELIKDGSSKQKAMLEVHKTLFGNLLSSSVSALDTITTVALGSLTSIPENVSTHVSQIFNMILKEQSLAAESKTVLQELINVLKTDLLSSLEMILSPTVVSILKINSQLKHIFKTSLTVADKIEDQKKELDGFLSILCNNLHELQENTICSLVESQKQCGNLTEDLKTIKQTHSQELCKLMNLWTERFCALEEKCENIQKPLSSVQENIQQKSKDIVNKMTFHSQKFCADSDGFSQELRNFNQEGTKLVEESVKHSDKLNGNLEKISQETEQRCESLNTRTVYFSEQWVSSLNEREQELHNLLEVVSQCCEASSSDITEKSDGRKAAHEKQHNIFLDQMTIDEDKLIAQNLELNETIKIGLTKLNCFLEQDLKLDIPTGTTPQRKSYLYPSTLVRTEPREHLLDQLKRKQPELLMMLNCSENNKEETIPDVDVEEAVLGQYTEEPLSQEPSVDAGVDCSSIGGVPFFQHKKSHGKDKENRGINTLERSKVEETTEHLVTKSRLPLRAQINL

MCF7 = assay: Antiproliferative activity against human MCF7 cells assessed as inhibition of cell proliferation measured after 72 hrs by CCK8 assay; assay type: functional, cell-based; conditions: MCF7, 72 h
HCT-116 [7] = assay: Induction of cell cycle arrest in human HCT-116 cells assessed as accumulation of cells at G2/M phase at 10 nM incubated for 24 hrs by RNase A/propidium iodide staining based flow cytometric analysis (reference value: 4.05 %); assay type: functional
HCT-116 [8] = assay: Induction of apoptosis in human HCT-116 cells assessed as early apoptotic cells at 100 nM incubated for 48 hrs by Annexin V-FITC/PI staining based flow cytometry analysis (reference value: 3.02 %); assay type: functional
HCT-116 [9] = assay: Induction of cell cycle arrest in human HCT-116 cells assessed as accumulation of cells at G1 phase at 10 nM incubated for 24 hrs by RNase A/propidium iodide staining based flow cytometric analysis (reference value: 93.11 %); assay type: functional
HCT-116 [10] = assay: Induction of apoptosis in human HCT-116 cells assessed as late apoptotic cells at 100 nM incubated for 48 hrs by Annexin V-FITC/PI staining based flow cytometry analysis (reference value: 1.36 %); assay type: functional
A549 = assay: Antiproliferative activity against human A549 cells assessed as inhibition of cell proliferation measured after 72 hrs by CCK8 assay; assay type: functional, cell-based; conditions: A549, 72 h
MDA-MB-231 = assay: Antiproliferative activity against human MDA-MB-231 cells assessed as inhibition of cell proliferation measured after 72 hrs by CCK8 assay; assay type: functional, cell-based; conditions: MDA-MB-231, 72 h
HCT-116 [11] = assay: Induction of cell cycle arrest in human HCT-116 cells assessed as accumulation of cells at S phase at 10 nM incubated for 24 hrs by RNase A/propidium iodide staining based flow cytometric analysis (reference value: 2.84 %); assay type: functional

SMILES | IC50 (HCT-116 [1]) | Activity [2] | further results
COc1ccc(C2(SC[C@H](N)C(=O)NCCCCCCNc3cccc4c3C(=O)N(C3CCC(=O)NC3=O)C4=O)c3ccccc3C=Cc3ccccc32)cc1 (stereo partly specified) | 93.4 nM | 42.3% | –
COc1ccc(C2(SC[C@H](N)C(=O)NCCCCCCCCCCNc3ccc4c(c3)C(=O)N(C3CCC(=O)NC3=O)C4=O)c3ccccc3C=Cc3ccccc32)cc1 (stereo partly specified) | 51.3 nM | 53.9% | –
COc1ccc(C2(SC[C@H](N)C(=O)NCCCCCCCCCCNC(=O)COc3cccc4c3C(=O)N(C3CCC(=O)NC3=O)C4=O)c3ccccc3C=Cc3ccccc32)cc1 (stereo partly specified) | 31.6 nM | 68.3% | –
COc1ccc(C2(SC[C@H](N)C(=O)NCCOCCOCCOCCNc3cccc4c3C(=O)N(C3CCC(=O)NC3=O)C4=O)c3ccccc3C=Cc3ccccc32)cc1 (stereo partly specified) | 81.3 nM | 43.5% | –
COc1ccc(C2(SC[C@H](N)C(=O)NCCOCCOCCOCCC(=O)N[C@H](C(=O)N3C[C@H](O)C[C@H]3C(=O)NCc3ccc(-c4scnc4C)cc3)C(C)(C)C)c3ccccc3C=Cc3ccccc32)cc1 | 165 nM | – | Activity (HCT-116 [3]): 32.1%
COc1ccc(C2(SC[C@H](N)C(=O)NCCCCCCNC(=O)COc3cccc4c3C(=O)N(C3CCC(=O)NC3=O)C4=O)c3ccccc3C=Cc3ccccc32)cc1 (stereo partly specified) | 52.9 nM | 52.5% | –
COc1ccc(C2(SC[C@H](N)C(=O)NCCCCC(=O)N[C@H](C(=O)N3C[C@H](O)C[C@H]3C(=O)NCc3ccc(-c4scnc4C)cc3)C(C)(C)C)c3ccccc3C=Cc3ccccc32)cc1 | 130 nM | – | Activity (HCT-116 [3]): 38.3%
COc1ccc(C2(SC[C@H](N)C(=O)NCCOCCNc3cccc4c3C(=O)N(C3CCC(=O)NC3=O)C4=O)c3ccccc3C=Cc3ccccc32)cc1 (stereo partly specified) | 366 nM | 12.8% | –
COc1ccc(C2(SC[C@H](N)C(=O)NCCCCNc3cccc4c3C(=O)N(C3CCC(=O)NC3=O)C4=O)c3ccccc3C=Cc3ccccc32)cc1 (stereo partly specified) | 247 nM | 11.2% | –
COc1ccc(C2(SC[C@H](N)C(=O)NCCOCCOCCNC(=O)COc3cccc4c3C(=O)N(C3CCC(=O)NC3=O)C4=O)c3ccccc3C=Cc3ccccc32)cc1 (stereo partly specified) | 42.2 nM | 53.2% | –
COc1ccc(C2(SC[C@H](N)C(=O)NCCCCCNC(=O)COc3cccc4c3C(=O)N(C3CCC(=O)NC3=O)C4=O)c3ccccc3C=Cc3ccccc32)cc1 (stereo partly specified) | 66.8 nM | 46.6% | –
COc1ccc(C2(SC[C@H](N)C(=O)NCCOCCNC(=O)COc3cccc4c3C(=O)N(C3CCC(=O)NC3=O)C4=O)c3ccccc3C=Cc3ccccc32)cc1 (stereo partly specified) | 37.4 nM | 60.1% | –
COc1ccc(C2(SC[C@H](N)C(=O)NCCCCCCCCCCNc3cccc4c3C(=O)N(C3CCC(=O)NC3=O)C4=O)c3ccccc3C=Cc3ccccc32)cc1 (stereo partly specified) | 42.3 nM | 60.1% | –
COc1ccc(C2(SC[C@H](N)C(=O)NCCCCCCCCC(=O)N[C@H](C(=O)N3C[C@H](O)C[C@H]3C(=O)NCc3ccc(-c4scnc4C)cc3)C(C)(C)C)c3ccccc3C=Cc3ccccc32)cc1 | 262 nM | – | Activity (HCT-116 [3]): 18.3%
COc1ccc(C2(SC[C@H](N)C(=O)NCCOCCOCCNc3cccc4c3C(=O)N(C3CCC(=O)NC3=O)C4=O)c3ccccc3C=Cc3ccccc32)cc1 (stereo partly specified) | 184 nM | 29.1% | –
COc1ccc(C2(SC[C@H](N)C(=O)NCCCNC(=O)COc3cccc4c3C(=O)N(C3CCC(=O)NC3=O)C4=O)c3ccccc3C=Cc3ccccc32)cc1 (stereo partly specified) | 96.9 nM | 42.1% | –
COc1ccc(C2(SC[C@H](N)C(=O)NCCOCCC(=O)N[C@H](C(=O)N3C[C@H](O)C[C@H]3C(=O)NCc3ccc(-c4scnc4C)cc3)C(C)(C)C)c3ccccc3C=Cc3ccccc32)cc1 | 110 nM | – | Activity (HCT-116 [3]): 42.2%
COc1ccc(C2(SC[C@H](N)C(=O)NCCOCCNc3ccc4c(c3)C(=O)N(C3CCC(=O)NC3=O)C4=O)c3ccccc3C=Cc3ccccc32)cc1 (stereo partly specified) | 203 nM | 25.7% | –
COc1ccc(C2(SC[C@H](N)C(=O)NCCCCCCCCNc3ccc4c(c3)C(=O)N(C3CCC(=O)NC3=O)C4=O)c3ccccc3C=Cc3ccccc32)cc1 (stereo partly specified) | 53.8 nM | 54.3% | –
COc1ccc(C2(SC[C@H](N)C(=O)NCCOCCOCCC(=O)N[C@H](C(=O)N3C[C@H](O)C[C@H]3C(=O)NCc3ccc(-c4scnc4C)cc3)C(C)(C)C)c3ccccc3C=Cc3ccccc32)cc1 | 158 nM | – | Activity (HCT-116 [3]): 34.5%
COc1ccc(C2(SC[C@H](N)C(=O)NCCCCCCC(=O)N[C@H](C(=O)N3C[C@H](O)C[C@H]3C(=O)NCc3ccc(-c4scnc4C)cc3)C(C)(C)C)c3ccccc3C=Cc3ccccc32)cc1 | 181 nM | – | Activity (HCT-116 [3]): 25.2%
COc1ccc(C2(SC[C@H](N)C(=O)NCCCCNC(=O)COc3cccc4c3C(=O)N(C3CCC(=O)NC3=O)C4=O)c3ccccc3C=Cc3ccccc32)cc1 (stereo partly specified) | 83.7 nM | 43.6% | –
COc1ccc(C2(SC[C@H](N)C(=O)NCCCCCCCCNc3cccc4c3C(=O)N(C3CCC(=O)NC3=O)C4=O)c3ccccc3C=Cc3ccccc32)cc1 (stereo partly specified) | 40.8 nM | 61.5% | –
COc1ccc(C2(SC[C@H](N)C(=O)NCCOCCOCCOCCNc3ccc4c(c3)C(=O)N(C3CCC(=O)NC3=O)C4=O)c3ccccc3C=Cc3ccccc32)cc1 (stereo partly specified) | 95.4 nM | 40.6% | –
COc1ccc(C2(SC[C@H](N)C(=O)NCCOCCOCCOCCNC(=O)COc3cccc4c3C(=O)N(C3CCC(=O)NC3=O)C4=O)c3ccccc3C=Cc3ccccc32)cc1 (stereo partly specified) | 206 nM | 28.3% | –
COc1ccc(C2(SC[C@H](N)C(=O)O)c3ccccc3C=Cc3ccccc32)cc1 | 8.5 nM | 0% | viability at 0.1 µM (HCT-116 [4]): 30.7%; Activity (HCT-116 [5]): 14.06%; IC50 [6]: 27.6 nM; IC50 (MCF7): 17.5 nM; Activity (HCT-116 [7]): 21.03%; Activity (HCT-116 [8]): 31.49%; Activity (HCT-116 [9]): 66.9%; Activity (HCT-116 [10]): 23.79%; IC50 (A549): 262 nM; IC50 (MDA-MB-231): 12.1 nM; Activity (HCT-116 [11]): 12.07%
COc1ccc(C2(SC[C@H](N)C(=O)NCCCCCCNc3ccc4c(c3)C(=O)N(C3CCC(=O)NC3=O)C4=O)c3ccccc3C=Cc3ccccc32)cc1 (stereo partly specified) | 145 nM | 35.6% | –
COc1ccc(C2(SC[C@H](N)C(=O)NCCOCCOCCNc3ccc4c(c3)C(=O)N(C3CCC(=O)NC3=O)C4=O)c3ccccc3C=Cc3ccccc32)cc1 (stereo partly specified) | 235 nM | 24.1% | –
COc1ccc(C2(SC[C@H](N)C(=O)NCCNC(=O)COc3cccc4c3C(=O)N(C3CCC(=O)NC3=O)C4=O)c3ccccc3C=Cc3ccccc32)cc1 (stereo partly specified) | 313 nM | 18.5% | –
COc1ccc(C2(SC[C@H](N)C(=O)NCCCCNc3ccc4c(c3)C(=O)N(C3CCC(=O)NC3=O)C4=O)c3ccccc3C=Cc3ccccc32)cc1 (stereo partly specified) | 360 nM | 10.6% | –
